Measured values reported in ChEMBL document CHEMBL2346498, “Expression, characterization and inhibition of Toxoplasma gondii 1-deoxy-D-xylulose-5-phosphate reductoisomerase” (Bioorg Med Chem Lett, 2013).

Assay: Inhibition of recombinant Toxoplasma gondii DXR catalytic domain (68 to 513) expressed in Escherichia coli BL21 using DXP as substrate after 10 mins by Uv-spectrophotometric analysis
Format: cell-free

Compound	Ki [µM]
O=P(O)(O)Cc1ccc(-c2ccccc2)cn1	2.1
O=CN(O)CCC(c1ccc(Cl)c(Cl)c1)P(=O)(O)O (stereo unspecified)	0.077
CC(=O)N(O)CCC(c1ccc(Cl)c(Cl)c1)P(=O)(O)O (stereo unspecified)	0.22
O=CN(O)CCC(c1cccnc1)P(=O)(O)O (stereo unspecified)	0.055
O=CN(O)CCC(c1ccncc1)P(=O)(O)O (stereo unspecified)	0.079
CC(=O)N(O)CCC(c1cccnc1)P(=O)(O)O (stereo unspecified)	0.97
CC(=O)N(O)CCC(c1ccncc1)P(=O)(O)O (stereo unspecified)	0.53
O=c1ccc(-c2ccccc2)cn1O [1-HYDROXY-5-PHENYLPYRIDIN-2(1H)-ONE]	25.6
O=CN(O)CCCP(=O)(O)O [FOSMIDOMYCIN]	0.09
CC(=O)N(O)CCCP(=O)(O)O [FR-900098]	0.048
O=P(O)(O)Cc1ccccn1 [PYRIDIN-2-YLMETHYLPHOSPHONIC ACID]	4.1
